This assay addresses PD-1/PD-L1 (Homo sapiens (Human), UniProt Q9NZQ7). The assay is described as follows: PD-1/PD-L1 Homogeneous Time-Resolved Fluorescence (HTRF) Binding Assay. Particulars: recombinant human PD-1 (3 nM) and PD-L1 (10 nM), 25° C., PBS pH 7.4. The procedure, abridged:
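Fc-tagged human PD-1 (25-167, 3 nM) and His-tagged PD-L1 (19-238, 10 nM) preincubated with inhibitor 40 min in PBS pH 7.4, 0.05% Tween-20, 0.1% BSA, 1% DMSO, 25 °C. Binding detected by HTRF (Eu anti-IgG/APC anti-His, 665/620 nm) after 60 min; IC50 from percent control activity.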

Consider eight molecules from US10308644B2, “Heterocyclic compounds as immunomodulators” (Incyte Corporation, priority 2016, dated 2019).

Chain of PD-1/PD-L1 (Q9NZQ7 19-238): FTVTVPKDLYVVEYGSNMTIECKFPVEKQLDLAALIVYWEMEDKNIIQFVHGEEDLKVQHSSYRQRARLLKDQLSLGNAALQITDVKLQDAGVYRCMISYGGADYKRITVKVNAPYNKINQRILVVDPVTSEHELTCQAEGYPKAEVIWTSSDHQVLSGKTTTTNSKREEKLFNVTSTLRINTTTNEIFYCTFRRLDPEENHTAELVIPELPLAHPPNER

As for `CC[C@@H](CO)NCc1cnc2c(Nc3cccc(-c4cccc(-c5nc6cc(CN7CC[C@@](C)(C(=O)O)C7)cc(C#N)c6o5)c4C)c3C)nccc2c1` [Example 194, (R)-1-((7-cyano-2-(3′-(3-(((S)-1-hydroxybutan-2-ylamino)methyl)-1,7-naphthyridin-8-ylamino)-2,2′-dimethylbiphenyl-3-yl)benzo[d]oxazol-5-yl)methyl)-3-methylpyrrolidine-3-carboxylic acid], the half-inhibitory concentration (IC50) is at most 10 nM.

`Cc1c(-c2nc3cc(CN4CC[C@@](C)(C(=O)O)C4)cc(C#N)c3o2)cccc1-c1cccc(NC(=O)c2nc3c(n2C)CC(C)NC3)c1Cl` (stereo partly drawn) [Example 163, (3R)-1-((2-(2′-chloro-3′-(1,6-dimethyl-4,5,6,7-tetrahydro-1H-imidazo[4,5-c]pyridine-2-carboxamido)-2-methylbiphenyl-3-yl)-7-cyanobenzo[d]oxazol-5-yl)methyl)-3-methylpyrrolidine-3-carboxylic acid]: the concentration for half-maximal inhibition (IC50) is at most 10 nM.

As for `Cc1c(Nc2nccc3cc(CN4CC[C@H](O)C4)cnc23)cccc1-c1cccc(-c2nc3cc(CNCCC(=O)O)cc(Cl)c3o2)c1C` [Example 20, (S)-3-((7-chloro-2-(3′-(3-((3-hydroxypyrrolidin-1-yl)methyl)-1,7-naphthyridin-8-ylamino)-2,2′-dimethylbiphenyl-3-yl)benzo[d]oxazol-5-yl)methylamino)propanoic acid], the IC50 is at most 10 nM.

Turning to `Cc1c(-c2nc3c(o2)CCNC3)cccc1-c1cccc(-c2nc3cc(CN4CC[C@@H](C(=O)O)C4)cc(C#N)c3o2)c1C` [Example 75, (R)-1-((7-cyano-2-(2,2′-dimethyl-3′-(4,5,6,7-tetrahydrooxazolo[4,5-c]pyridin-2-yl)-[1,1′-biphenyl]-3-yl)benzo[d]oxazol-5-yl)methyl)pyrrolidine-3-carboxylic acid], the IC50 was at most 10 nM.

As to `Cc1c(-c2nc3cc(CN4CC[C@@H](O)C4)cc(C#N)c3o2)cccc1-c1cccc(NC(=O)c2nc3c(n2C)CCN(C2CC(C)(C(=O)O)C2)C3)c1Cl` (stereo partly drawn) [Example 263, (R)-3-(2-(2-chloro-3′-(7-cyano-5-((3-hydroxypyrrolidin-1-yl)-methyl)benzo[d]oxazol-2-yl)-2′-methylbiphenyl-3-ylcarbamoyl)-1-methyl-6,7-dihydro-1H-imidazo[4,5-c]pyridin-5(4H)-yl)-1-methylcyclobutanecarboxylic acid], the IC50 was at most 10 nM.

Take `Cc1c(-c2nc3c(o2)CN(C(=O)CN2CCC(O)CC2)C3)cccc1-c1cccc(-c2nc3cc(CN4CC[C@@](C)(C(=O)O)C4)cc(C#N)c3o2)c1C` [Example 249, (R)-1-((7-cyano-2-(3′-(5-(2-(4-hydroxypiperidin-1-yl)acetyl)-5,6-dihydro-4H-pyrrolo[3,4-d]oxazol-2-yl)-2,2′-dimethyl-[1,1′-biphenyl]-3-yl)benzo[d]oxazol-5-yl)methyl)-3-methylpyrrolidine-3-carboxylic acid]: the IC50 is at most 10 nM.

With `Cc1c(Nc2nccc3cc(CN4CC[C@@H](O)C4)cnc23)cccc1-c1cccc(-c2nc3cc(CN[C@H]4CCC[C@@H]4C(=O)O)cc(C#N)c3o2)c1C` [Example 179, (1S,2S)-2-((7-cyano-2-(3′-(3-(((R)-3-hydroxypyrrolidin-1-yl)methyl)-1,7-naphthyridin-8-ylamino)-2,2′-dimethylbiphenyl-3-yl)benzo[d]oxazol-5-yl)methylamino)cyclopentanecarboxylic acid], the IC50 was at most 10 nM.

Consider `COCC1(C(=O)O)CCN(Cc2cc(C#N)c3oc(-c4cccc(-c5cccc(Nc6nccc7cc(CN8CC[C@@H](O)C8)cnc67)c5C)c4C)nc3c2)C1` (stereo partly drawn) [Example 185, 1-((7-cyano-2-(3′-(3-(((R)-3-hydroxypyrrolidin-1-yl)methyl)-1,7-naphthyridin-8-ylamino)-2,2′-dimethylbiphenyl-3-yl)benzo[d]oxazol-5-yl)methyl)-3-(methoxymethyl)pyrrolidine-3-carboxylic acid], for which the IC50 was at most 10 nM.
